According to patent US20210228523A1, “MODULATORS OF SESTRIN-GATOR2 INTERACTION AND USES THEREOF” (Navitor Pharmaceuticals, Inc., priority 2017, published 2021):

System: synaptic proteins (GluR1, Synapsin 1, PSD95)
Experiment: Western blot of synaptic proteins in crude synaptosomes from rat prefrontal cortex
Assay type: in vivo
Details: for levels of GluR1 in crude PFC synaptosomes / levels of PSD95 in crude PFC synaptosomes / levels of Synapsin 1 in crude PFC synaptosomes: Example B, 24 hr after administration
Experimental: Study Design. Forty-eight (48) male Sprague Dawley rats weighing between 175 and 200 g were randomized into 8 study groups (n=6/group), following a 5-day acclimation period. On study day 0, rats in Groups 3 and 7 received a single dose of Sal while Groups 4 and 8 received a single dose of Ket (10 mg/kg) each by i.p. injection. […] One hour after dosing, rats in Groups 1-4 were sacrificed by conscious decapitation and followed by collection of the PFC. Crude synaptosomes were prepared from the PFC and three mTORC1 substrates, pmTOR, pp70S6K and p4E-BP1, and corresponding total protein loading controls (mTOR, p70S6K, and GAPDH) were quantitated by WB. Twenty-four hours after dosing, rats in Groups 5-8 were sacrificed by conscious decapitation and collection of the PFC. Crude synaptosomes were prepared from the PFC and the synaptic proteins (GluR1 and PSD95), as well as the total protein loading control (GAPDH), were quantitated by WB.
Prefrontal Cortex Synaptosome Preparations. The brain was dissected from rats in all groups (n=6/group) and rinsed in PBS. The PFC was collected as shown in FIG. 6 and homogenized at 4° C. in homogenization buffer (0.32 M sucrose, 20 mM HEPES at pH 7.4, 1 mM EDTA, 5 mM NaF, 1 mM NaVO3 and protease inhibitor cocktail (Roche; Ser. No. 19/543,200)). The homogenate was centrifuged for 10 min at 2,800 rpm at 4° C. after which the supernatant was removed and re-centrifuged at 12,000 rpm for 10 min at 4° C. The resulting pellet containing crude synaptosomes was re-suspended in Lysis buffer (50 mM Tris-HCl (pH 7.5), 150 mM NaCl, 1% Triton X-100, 0.1% SDS, 2 mM, EDTA, 1 mM NaVO3, 5 mM NaF and protease inhibitor cocktail) and sonicated on ice for 20 s at 50% amplitude. The protein concentration was determined by Bradford assay and all samples were mixed with loading buffer (60 mM Tris-HCl pH 6.8, 20 mM DTT, 2% SDS, 10% glycerol, 5% β-mercaptoethanol and 0.01% Bromophenol blue) and stored at -20° C. until WB analysis.
Western Blot Analysis: Western blot analysis for GluR1, PSD95 and GAPDH was performed as previously described. Briefly, synaptosomes preparations (15 μg total protein) were loaded into 10-15% SDS PAGE gel for electrophoresis and transferred to a polyvinylidene difluoride (PVDF) membrane in transfer buffer (10× premixed electrophoresis buffer contains 25 mM Tris, 192 mM glycine, pH 8.3; Bio-Rad). The PVDF membranes were blocked for 1 hr at room temperature with blocking buffer (2% BSA in PBS-T (10 mM Phosphate, pH 7.4, 2.7 mM KCl, 137 mM NaCl and 0.1% Tween-20)) and subsequently incubated with primary antibodies: rabbit anti-pmTOR at 1:1000 (Cell Signaling; #5536), rabbit anti-mTOR at 1:1000 (Cell Signaling; #2972), rabbit anti-pp70S6K at 1:1000 (Cell Signaling; #9205), rabbit anti-p70S6K at 1:1000 (Cell Signaling; #2708), rabbit anti-p4E-BP1 at 1:1000 (Cell Signaling; #2855), rabbit anti-GluR1 at 1:1000 (Cell Signaling; #13185), rabbit anti-Synapsin 1 at 1:1000 (Cell Signaling; #5297), rabbit anti-PSD95 at 1:1000 (Cell Signaling; #9644) and rabbit anti-GAPDH at 1:1000 (Cell Signaling; #5174) in blocking buffer overnight at 4° C. The next day, membranes were washed 3 times in PBS-T buffer and incubated with horseradish peroxidase conjugated anti-mouse or anti-rabbit secondary antibody at 1:5000 to 1:10000 (Vector Laboratories Inc) for 1 hr. After final three washes with PBS-T buffer, bands were detected using enhanced chemiluminescence. The blots then were incubated in the stripping buffer (2% SDS, 100 mM β-mercaptoethanol, 50 mM Tris-HCl pH 6.8) for 30 min at 50-55° C. followed by three washes with PBS-T buffer. The stripped blots were kept in blocking solution for 1 hr and incubated with the primary antibody directed against total levels of the respective protein or GAPDH for loading control. Densitometric analysis of phospho- and total immunoreactivity for each protein was conducted using NIH Image J software. […]

CC(C)(C[C@H](N)C(=O)O)C(F)F [NV-5138]
levels of GluR1 in crude PFC synaptosomes (NV-5138 160 mg/kg oral): significantly increased | levels of PSD95 in crude PFC synaptosomes (NV-5138 160 mg/kg oral): trend toward increased expression | levels of Synapsin 1 in crude PFC synaptosomes (NV-5138 160 mg/kg oral): significantly increased | GluR1 in crude PFC synaptosomes (Example E, CUS rats, NV-5138 160 mg/kg oral, 24 hrs after second dose (day 5), p<0.01): normalization | PSD95 in crude PFC synaptosomes (Example E, CUS rats, NV-5138 160 mg/kg oral, 24 hrs after second dose (day 5), p<0.05): normalization

CNC1(c2ccccc2Cl)CCCCC1=O (centres unmarked) [Ket, ketamine, reference compound]
levels of GluR1 in crude PFC synaptosomes (Ket 10 mg/kg i.p.): significantly increased | levels of PSD95 in crude PFC synaptosomes (Ket 10 mg/kg i.p.): significantly increased | levels of Synapsin 1 in crude PFC synaptosomes (Ket 10 mg/kg i.p.): significantly increased
